Results taken from ChEMBL document CHEMBL1130311, “Design and synthesis of a possible mimic of a thrombin-binding DNA aptamer” (Bioorg Med Chem Lett, 1997).
The source made the active and inactive calls. The rule behind the calls is not given here.

Molecular target: Prothrombin (Homo sapiens) (UniProt P00734)
Assay: Tested for thrombin inhibitory activity by fibrinogen dependent thrombin assay; Inactive

For `Cc1cn([C@H]2C[C@@H]3OP(=O)(O)OC[C@H]4O[C@@H](n5cnc6c(O)nc(N)nc65)C[C@@H]4OP(=O)(O)OC[C@H]4O[C@@H](C[C@@H]4OP(=O)(O)OC(C)C)n4cc(c(=O)[nH]c4=O)COCOC[C@H]3O2)c(=O)[nH]c1=O`, the Activity was “inactive”.
